We go through six compounds from EP4678638A1, “NEW E3 UBIQUITIN LIGASE LIGAND, PROTEIN DEGRADATION AGENT AND USE THEREOF” (priority 2023, dated 2024).

SMILES strings stand for the structures.

For experiment [1], the system named is H1975. The experiment is described as follows: CCK-8 proliferation, NCI-H1975 (H1975). Type of experiment: cell-based, Human. Particulars: Homo sapiens, NCI-H1975; Table B6, compounds designed based on the ALK inhibitors; H1975 cells; read-out: Inhibitory activity (IC50, nM) on tumor cell proliferation, H1975. An outline of the steps:
(§1)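 Cells seeded, then after 24 h treated with 10 concentrations (top 10 µM, 5-fold serial dilution) for a line-specific time at 37°C, 5% CO2. Viability read by CCK-8; IC50 fitted from growth-inhibition curves.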

The test system of experiment [2] is MCF7. The experiment can be described thus: CCK-8 proliferation, MCF7 (MCF-7). Type of experiment: cell-based. To be noted: Homo sapiens, MCF7; Table B6, compounds designed based on the ALK inhibitors; MCF-7 cells; read-out: Inhibitory activity (IC50, nM) on tumor cell proliferation, MCF-7. In outline:
as §1

Experiment [3] has as its target T1, ALK (Homo sapiens, UniProt Q96SW2+Q9HC35+Q9UM73).
T1 construct: evaluate the effects of the compounds of the present disclosure on the expression of target proteins in cells; endogenous in cells; host or cells: H2228
The experiment can be described thus: Western blot degradation of ALK (H2228 Cell). Particulars: Table D5. Type of experiment: cell-based. The procedure: Conventional Western blot assay was performed to evaluate the effects of the compounds of the present disclosure on the expression of target proteins in cells.
(1) Cell Seeding and Protein Harvesting: The selected cells were processed according to the cell seeding procedure and protein harvesting procedure in Table III-2. Table III-2 Cell Seeding and Protein Harvesting Procedures
(2) To the collected supernatant, 5X SDS sample loading buffer was added, followed by denaturation at 95°C for 5 minutes. The denatured samples were then separated by SDS-PAGE electrophoresis on a polyacrylamide gel. Proteins were transferred to a nitrocellulose membrane (0.45 µm NC membrane), blocked with blocking buffer at room temperature for 1 hour, and subjected to antibody incubation and development procedures according to the antibody manufacturer's instructions (Cell Signaling Technology).
Half-Maximal Degradation Concentration value (the drug concentration required for degrading proteins by 50%, abbreviated as DC50) reads method: comparing the grayscale values of Western blot bands from drug-treated samples with those from blank DMSO-treated controls, and identifying the drug concentration range at which the grayscale value is half that of the DMSO-treated control bands.
DC50 values can be calculated using ImageJ software to measure grayscale values of Western blot bands from drug-treated samples. The concentration-response curve is fitted to estimate the drug concentration corresponding to half the grayscale value.
Target protein remaining (%) refers to the percentage of target protein remaining in hPBMC cells after treatment with protein degrader compounds.
Calculation method for target protein remaining (%): Use ImageJ software to measure grayscale values of Western blot bands from drug (protein degrader)-treated samples. The grayscale value of drug-treated bands is divided by that of internal control protein bands, and the resulting quotient is normalized to obtain the relative percentage of remaining target protein after protein degrader treatment.
Target protein degradation rate (%) = 100% - target protein remaining (%).

Experiment [4] has as its system SR. The experiment is described as follows: CCK-8 proliferation, SR. Type of experiment: cell-based, Human. To be noted: Homo sapiens; Table B6, compounds designed based on the ALK inhibitors; SR cells; read-out: Inhibitory activity (IC50, nM) on tumor cell proliferation, SR. An outline of the steps:
as §1

In experiment [5] the test system is H2228. The experiment can be described thus: CCK-8 proliferation, NCI-H2228 (H2228). Type of experiment: cell-based. To be noted: Homo sapiens, NCI-H2228; Table B6, compounds designed based on the ALK inhibitors; H2228 cells; read-out: Inhibitory activity (IC50, nM) on tumor cell proliferation, H2228. An outline of the steps:
as §1

T1 sequence (Q9HC35+Q9UM73 fused): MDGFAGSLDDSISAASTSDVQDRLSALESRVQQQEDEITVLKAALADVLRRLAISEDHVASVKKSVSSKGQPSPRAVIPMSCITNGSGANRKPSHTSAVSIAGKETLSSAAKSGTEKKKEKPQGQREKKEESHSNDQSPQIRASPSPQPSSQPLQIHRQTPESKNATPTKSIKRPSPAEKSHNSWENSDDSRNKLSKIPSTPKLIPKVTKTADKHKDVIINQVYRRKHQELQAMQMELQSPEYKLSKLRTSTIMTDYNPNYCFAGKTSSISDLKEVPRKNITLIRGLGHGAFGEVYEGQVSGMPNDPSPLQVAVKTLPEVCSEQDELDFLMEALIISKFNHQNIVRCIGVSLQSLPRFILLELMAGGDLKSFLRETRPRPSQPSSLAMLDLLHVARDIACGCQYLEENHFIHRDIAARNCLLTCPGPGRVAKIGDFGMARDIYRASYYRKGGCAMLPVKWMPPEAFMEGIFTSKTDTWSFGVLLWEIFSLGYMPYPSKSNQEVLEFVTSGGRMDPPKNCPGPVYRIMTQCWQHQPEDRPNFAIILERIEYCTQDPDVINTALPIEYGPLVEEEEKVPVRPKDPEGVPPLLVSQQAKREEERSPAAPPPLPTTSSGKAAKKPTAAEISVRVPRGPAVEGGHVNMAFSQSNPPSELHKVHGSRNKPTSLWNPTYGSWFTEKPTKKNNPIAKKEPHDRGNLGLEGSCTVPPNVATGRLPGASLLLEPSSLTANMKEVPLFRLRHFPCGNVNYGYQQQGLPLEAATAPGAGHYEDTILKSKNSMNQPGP
T1 sequence (Q96SW2 whole entry): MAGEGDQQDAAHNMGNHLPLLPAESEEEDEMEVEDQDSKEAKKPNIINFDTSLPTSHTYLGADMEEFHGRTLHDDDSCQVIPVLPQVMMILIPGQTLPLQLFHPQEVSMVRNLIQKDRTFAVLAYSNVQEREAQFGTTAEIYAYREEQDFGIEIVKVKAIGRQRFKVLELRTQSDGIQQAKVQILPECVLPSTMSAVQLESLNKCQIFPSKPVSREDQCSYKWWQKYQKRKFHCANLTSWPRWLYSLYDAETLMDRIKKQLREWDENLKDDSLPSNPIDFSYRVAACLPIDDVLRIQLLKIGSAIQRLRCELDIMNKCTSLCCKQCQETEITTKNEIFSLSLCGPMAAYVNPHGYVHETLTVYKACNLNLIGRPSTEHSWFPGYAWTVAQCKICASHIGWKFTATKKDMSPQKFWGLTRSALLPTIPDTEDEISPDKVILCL
T1 sequence (Q16531 whole entry partner): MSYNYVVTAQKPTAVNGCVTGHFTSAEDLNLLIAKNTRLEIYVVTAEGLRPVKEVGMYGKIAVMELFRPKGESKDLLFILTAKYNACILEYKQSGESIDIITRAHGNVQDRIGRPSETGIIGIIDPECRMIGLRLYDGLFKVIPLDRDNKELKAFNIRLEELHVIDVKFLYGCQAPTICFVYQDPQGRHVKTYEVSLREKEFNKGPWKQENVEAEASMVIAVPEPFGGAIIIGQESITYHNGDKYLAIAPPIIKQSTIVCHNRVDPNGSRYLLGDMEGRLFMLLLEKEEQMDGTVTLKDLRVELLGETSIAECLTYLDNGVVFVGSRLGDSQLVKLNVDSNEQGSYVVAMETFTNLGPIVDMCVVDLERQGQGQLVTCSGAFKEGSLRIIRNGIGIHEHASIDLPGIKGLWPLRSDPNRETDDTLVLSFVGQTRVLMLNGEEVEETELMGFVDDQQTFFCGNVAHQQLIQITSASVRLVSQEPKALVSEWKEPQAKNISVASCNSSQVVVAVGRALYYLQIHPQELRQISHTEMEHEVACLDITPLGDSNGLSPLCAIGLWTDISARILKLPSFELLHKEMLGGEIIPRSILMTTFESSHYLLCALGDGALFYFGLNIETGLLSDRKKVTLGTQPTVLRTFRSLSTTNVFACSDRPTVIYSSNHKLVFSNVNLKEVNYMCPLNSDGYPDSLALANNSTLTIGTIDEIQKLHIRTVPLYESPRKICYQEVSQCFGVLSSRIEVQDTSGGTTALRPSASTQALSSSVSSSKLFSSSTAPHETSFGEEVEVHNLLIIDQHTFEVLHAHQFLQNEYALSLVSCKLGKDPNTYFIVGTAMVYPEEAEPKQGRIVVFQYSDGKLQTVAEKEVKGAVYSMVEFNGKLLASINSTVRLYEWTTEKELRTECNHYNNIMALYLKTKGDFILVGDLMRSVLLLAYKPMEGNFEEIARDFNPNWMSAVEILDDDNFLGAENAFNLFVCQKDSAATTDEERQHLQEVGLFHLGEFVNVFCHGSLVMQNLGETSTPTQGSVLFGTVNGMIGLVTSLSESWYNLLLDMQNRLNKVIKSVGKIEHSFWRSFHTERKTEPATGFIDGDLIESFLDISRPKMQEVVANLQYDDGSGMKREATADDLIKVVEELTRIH

Turning to `COc1cc(N2CCN(Cc3ccc(N4CCC(=O)NC4=O)c(F)c3)CC2)ccc1Nc1ncc(Cl)c(Nc2ccccc2P(C)(C)=O)n1` [GT-07346, 1-(4-((4-(4-((5-chloro-4-((2-(dimethylphosphoryl)phenyl)amino)pyrimidin-2-yl)amino)-3-methoxyphenyl)piperazin-1-yl)methyl)-2-fluorophenyl)dihydropyrimidine-2,4(1H,3H)-dione], the IC50 was 100 to 500 nM in experiment [1], 500 to 1000 nM in experiment [2], 10 to 50 nM in experiment [4] and 100 to 500 nM in experiment [5]. Besides, the “Degradation of substrate protein ALK (substrate protein remaining %)” value (shortened to “Degradation … (substrate protein remaining %)”) in experiment [3] was “A (A is defined as 0% ≤ substrate protein remaining % ≤ 80%)”.
As to `COc1cc(N2CCC(N3CCN(Cc4cncc(N5CCC(=O)NC5=O)c4)CC3)CC2)ccc1Nc1ncc(Cl)c(Nc2ccccc2P(C)(C)=O)n1` [GT-07610, 1-(5-((4-(1-(4-((5-chloro-4-((2-(dimethylphosphoryl)phenyl)amino)pyrimidin-2-yl)amino)-3-methoxyphenyl)piperidin-4-yl)piperazin-1-yl)methyl)pyridin-3-yl)dihydropyrimidine-2,4(1H,3H)-dione], the IC50 in experiment [1] fell in the range of 500 to 1000 nM; in experiment [2], 500 to 1000 nM; in experiment [4] it was 1 to 10 nM; in experiment [5] it was 50 to 100 nM. Moreover, the “Degradation … (substrate protein remaining %)” value in experiment [3] is “A (A is defined as 0% ≤ substrate protein remaining % ≤ 80%)”.
As to `COc1cc(N2CCC(N(C)Cc3ccnc(C4CCC(=O)NC4=O)c3)CC2)ccc1Nc1ncc(Cl)c(Nc2ccccc2P(C)(C)=O)n1` (centres unmarked) [GT-07697, 3-(4-(((1-(4-((5-chloro-4-((2-(dimethylphosphoryl)phenyl)amino)pyrimidin-2-yl)amino)-3-methoxyphenyl)piperidin-4-yl)(methyl)amino)methyl)pyridin-2-yl)piperidine-2,6-dione], the IC50 was 500 to 1000 nM in experiment [2], 10 to 50 nM in experiment [4] and 100 to 500 nM in experiment [5]. For the same compound, the “Degradation … (substrate protein remaining %)” value in experiment [3] was “A (A is defined as 0% ≤ substrate protein remaining % ≤ 80%)”.
The corresponding values for `Cc1cc(Nc2ncc(Cl)c(Nc3ccccc3S(=O)(=O)C(C)C)n2)c(OC(C)C)cc1C1CCN(Cc2ccc(N3CCC(=O)NC3=O)cc2)CC1` [GT-07592, 1-(4-((4-(4-((5-chloro-4-((2-(isopropylsulfonyl)phenyl)amino)pyrimidin-2-yl)amino)-5-isopropoxy-2-methylphenyl)piperidin-1-yl)methyl)phenyl)dihydropyr imidine-2,4(1H,3H)-dione] are 500 to 1000 nM, 10 to 50 nM, 100 to 500 nM and “A (A is defined as 0% ≤ substrate protein remaining % ≤ 80%)”.
With `CCc1cc2c(cc1N1CCN(Cc3ccc(N4CCC(=O)NC4=O)nc3)CC1)C(C)(C)c1[nH]c3cc(C#N)ccc3c1C2=O` [GT-07327, 8-(4-((6-(2,4-dioxotetrahydropyrimidin-1(2H)-yl)pyridin-3-yl)methyl)piperazin-1-yl)-9-ethyl-6,6-dimethyl-11-oxo-6,11-dihydro-5H-benzo[b]carbazole-3-carbonitrile], the IC50 in experiment [2] lay within 500 to 1000 nM; in experiment [4] it was 1 to 10 nM; in experiment [5] it was 100 to 500 nM. For the same compound, the “Degradation … (substrate protein remaining %)” value in experiment [3] is on record as “A (A is defined as 0% ≤ substrate protein remaining % ≤ 80%)”.
Turning to `CCc1cc2c(cc1N1CCN(Cc3ccc(N4CCC(=O)NC4=O)cc3)CC1)C(C)(C)c1[nH]c3cc(C#N)ccc3c1C2=O` [GT-07324, 8-(4-(4-(2,4-dioxotetrahydropyrimidin-1(2H)-yl)benzyl)piperazin-1-yl)-9-ethyl-6,6-dimethyl-11-oxo-6,11-dihydro-5H-benzo[b]carbazole-3-carbonitrile], the IC50 in experiment [2] lay within 500 to 1000 nM; in experiment [4], 10 to 50 nM; in experiment [5], 100 to 500 nM. Besides, the “Degradation … (substrate protein remaining %)” value in experiment [3] was “A (A is defined as 0% ≤ substrate protein remaining % ≤ 80%)”.
